# Results from the NIST ThermoML archive (doi:10.1016/j.tca.2016.11.008).
# ± gives the expanded uncertainty stated by the source.
# Assay: xn = mol fraction of the nth substance listed
# Settings: 101.3 kPa, Liquid, Vibrating tube method
"mass density (303.15 K, x1 = 0.667) [kg/m3]","mass density (313.15 K, x1 = 0.667) [kg/m3]","mass density (323.15 K, x1 = 0.667) [kg/m3]","mass density (333.15 K, x1 = 0.667) [kg/m3]","mass density (343.15 K, x1 = 0.667) [kg/m3]","mass density (353.15 K, x1 = 0.667) [kg/m3]","mass density (303.15 K, x2 = 0.333) [kg/m3]","mass density (313.15 K, x2 = 0.333) [kg/m3]","mass density (323.15 K, x2 = 0.333) [kg/m3]","mass density (333.15 K, x2 = 0.333) [kg/m3]","mass density (343.15 K, x2 = 0.333) [kg/m3]","mass density (353.15 K, x2 = 0.333) [kg/m3]",SMILES
1239.7 ± 3.4,1234.6 ± 3.3,1229.4 ± 3.3,1224.3 ± 3.3,1219.2 ± 3.3,1214 ± 3.3,,,,,,,C[N+](C)(C)CCO.[Cl-] [choline chloride] + O=C[C@H](O)[C@@H](O)[C@H](O)[C@H](O)CO
,,,,,,1125.4 ± 3.1,1118.9 ± 3.1,1112.5 ± 3,1106.2 ± 3,1099.8 ± 3,1093.5 ± 3,OCCOCCOCCO [triethylene glycol] + C[N+](C)(C)CCO.[Cl-]
